Source: ChEMBL document CHEMBL1201861, “Genomics of Drug Sensitity in Cancer screening data, Wellcome Trust Sanger Institute”

Key:
Experiment in all cases: cells
[1] = system: NCI-H446; assay type: functional, cell-based, Homo sapiens; conditions: Homo sapiens, NCI-H446;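 further: growth inhibition of NCI-H446 cells determined by a cell viability assay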
Description: SANGER: Inhibition of human NCI-H446 cell growth in a cell viability assay.

[2] = system: MLMA; assay type: functional, cell-based, Homo sapiens; conditions: Homo sapiens, MLMA;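 further: growth inhibition of MLMA cells (human), determined through a cell viability readout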
Description: SANGER: Inhibition of human MLMA cell growth in a cell viability assay.

[3] = system: MPP-89; assay type: functional, cell-based, Homo sapiens; conditions: Homo sapiens, MPP-89;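 further: growth inhibition of human MPP-89 cells, read out with a cell viability assay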
Description: SANGER: Inhibition of human MPP-89 cell growth in a cell viability assay.

[4] = system: NB5; assay type: functional, cell-based, Homo sapiens; conditions: Homo sapiens, NB5;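 further: growth inhibition of NB5 cells, read out as cell viability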
Description: SANGER: Inhibition of human NB5 cell growth in a cell viability assay.

[5] = system: NCI-H1838; assay type: functional, cell-based, Homo sapiens; conditions: Homo sapiens, NCI-H1838;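 further: growth inhibition of NCI-H1838 cells, determined with a cell viability readout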
Description: SANGER: Inhibition of human NCI-H1838 cell growth in a cell viability assay.

[6] = system: K562; assay type: functional, cell-based, Homo sapiens; conditions: Homo sapiens, K562
Description: SANGER: Inhibition of human K-562 cell growth in a cell viability assay.

[7] = system: OS-RC-2; assay type: functional, cell-based, Homo sapiens; conditions: Homo sapiens, OS-RC-2;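 further: growth inhibition of human OS-RC-2 cells, measured by a cell viability assay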
Description: SANGER: Inhibition of human OS-RC-2 cell growth in a cell viability assay.

[8] = system: GR-ST; assay type: functional, cell-based, Homo sapiens; conditions: Homo sapiens, GR-ST
Description: SANGER: Inhibition of human GR-ST cell growth in a cell viability assay.

[9] = system: ES7; assay type: functional, cell-based, Homo sapiens; conditions: Homo sapiens, ES7;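 further: growth inhibition of cultured human ES7 cells, read out as cell viability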
Description: SANGER: Inhibition of human ES7 cell growth in a cell viability assay.

[10] = system: NH-12; assay type: functional, cell-based, Homo sapiens; conditions: Homo sapiens, NH-12;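 further: growth inhibition of NH-12 cells, read out with a cell viability assay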
Description: SANGER: Inhibition of human NH-12 cell growth in a cell viability assay.

[11] = system: NCI-H209; assay type: functional, cell-based, Homo sapiens; conditions: Homo sapiens, NCI-H209;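 further: growth inhibition of human NCI-H209 cells, measured by a cell viability assay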
Description: SANGER: Inhibition of human NCI-H209 cell growth in a cell viability assay.

[12] = system: KNS-42; assay type: functional, cell-based; conditions: Homo sapiens;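 further: growth inhibition of KNS-42 cells, read out with a cell viability assay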
Description: SANGER: Inhibition of human KNS-42 cell growth in a cell viability assay.

[13] = system: HT-144; assay type: functional, cell-based, Homo sapiens; conditions: Homo sapiens, HT-144
Description: SANGER: Inhibition of human HT-144 cell growth in a cell viability assay.

[14] = system: Lu-65; assay type: functional, cell-based, Homo sapiens; conditions: Homo sapiens, Lu-65;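 further: growth inhibition of Lu-65 cancer cells, read out by a cell viability assay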
Description: SANGER: Inhibition of human LU-65 cell growth in a cell viability assay.

[15] = system: HH; assay type: functional, cell-based, Homo sapiens; conditions: Homo sapiens, HH
Description: SANGER: Inhibition of human HH cell growth in a cell viability assay.

[16] = system: SK-MEL-2; assay type: functional, cell-based, Homo sapiens; conditions: Homo sapiens, SK-MEL-2;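 further: growth inhibition of human SK-MEL-2 cells measured with a cell viability assay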
Description: SANGER: Inhibition of human SK-MEL-2 cell growth in a cell viability assay.

[17] = system: EW-13; assay type: functional, cell-based, Homo sapiens; conditions: Homo sapiens, EW-13; read-out: IC50;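 further: growth inhibition of EW-13 cells, read out with a cell viability assay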
Description: SANGER: Inhibition of human EW-13 cell growth in a cell viability assay.

[18] = system: CGTH-W-1; assay type: functional, cell-based, Homo sapiens; conditions: Homo sapiens, CGTH-W-1;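 further: growth inhibition of human CGTH-W-1 cells measured by cell viability assay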
Description: SANGER: Inhibition of human CGTH-W-1 cell growth in a cell viability assay.

[19] = system: RCC10RGB; assay type: functional, cell-based, Homo sapiens; conditions: Homo sapiens, RCC10RGB;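 further: growth inhibition of human RCC10RGB cells, read out by a cell viability assay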
Description: SANGER: Inhibition of human RCC10RGB cell growth in a cell viability assay.

[20] = system: COLO-800; assay type: functional, cell-based, Homo sapiens; conditions: Homo sapiens, COLO-800;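 further: growth inhibition of COLO-800 cells, read out with a cell viability assay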
Description: SANGER: Inhibition of human COLO-800 cell growth in a cell viability assay.

[21] = system: KM-H2; assay type: functional, cell-based, Homo sapiens; conditions: Homo sapiens, KM-H2;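 further: growth inhibition of KM-H2 cells, read out by a cell viability assay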
Description: SANGER: Inhibition of human KM-H2 cell growth in a cell viability assay.

[22] = system: GI-ME-N; assay type: functional, cell-based, Homo sapiens; conditions: Homo sapiens, GI-ME-N;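 further: growth inhibition of human GI-ME-N cells, read out with a cell viability assay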
Description: SANGER: Inhibition of human GI-ME-N cell growth in a cell viability assay.

[23] = system: MHH-NB-11; assay type: functional, cell-based, Homo sapiens; conditions: Homo sapiens, MHH-NB-11;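 further: growth inhibition of human MHH-NB-11 cells, read out by a cell viability assay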
Description: SANGER: Inhibition of human MHH-NB-11 cell growth in a cell viability assay.

[24] = system: GOTO; assay type: functional, cell-based, Homo sapiens; conditions: Homo sapiens, GOTO;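 further: growth inhibition of GOTO cells, read out by a cell viability assay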
Description: SANGER: Inhibition of human GOTO cell growth in a cell viability assay.

[25] = system: SF-268; assay type: functional, cell-based, Homo sapiens; conditions: Homo sapiens, SF-268;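 further: growth inhibition of SF-268 cells determined with a cell viability assay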
Description: SANGER: Inhibition of human SF268 cell growth in a cell viability assay.

[26] = system: COLO-824; assay type: functional, cell-based, Homo sapiens; conditions: Homo sapiens, COLO-824
Description: SANGER: Inhibition of human COLO-824 cell growth in a cell viability assay.

[27] = system: NCI-H747; assay type: functional, cell-based, Homo sapiens; conditions: Homo sapiens, NCI-H747;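 further: growth inhibition of human NCI-H747 cells, read out by a cell viability assay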
Description: SANGER: Inhibition of human NCI-H747 cell growth in a cell viability assay.

[28] = system: Becker; assay type: functional, cell-based, Homo sapiens; conditions: Homo sapiens, Becker;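 further: growth inhibition of Becker cells, read out with a cell viability assay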
Description: SANGER: Inhibition of human Becker cell growth in a cell viability assay.

[29] = system: SW872; assay type: functional, cell-based, Homo sapiens; conditions: Homo sapiens, SW872;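 further: growth inhibition of SW872 cells, read out by a viability assay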
Description: SANGER: Inhibition of human SW872 cell growth in a cell viability assay.

[30] = system: EW-11; assay type: functional, cell-based, Homo sapiens; conditions: Homo sapiens, EW-11;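 further: growth inhibition of human EW-11 cells, measured with a cell viability assay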
Description: SANGER: Inhibition of human EW-11 cell growth in a cell viability assay.

[31] = system: SNU1; assay type: functional, cell-based, Homo sapiens; conditions: Homo sapiens, SNU1;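 further: growth inhibition of human NCI-SNU-1 cells, measured with a cell viability assay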
Description: SANGER: Inhibition of human NCI-SNU-1 cell growth in a cell viability assay.

[32] = system: NCI-H23; assay type: functional, cell-based, Homo sapiens; conditions: Homo sapiens, NCI-H23;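 further: cell viability assay measuring growth inhibition of NCI-H23 cells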
Description: SANGER: Inhibition of human NCI-H23 cell growth in a cell viability assay.

[33] = system: HCC2218; assay type: functional, cell-based, Homo sapiens; conditions: Homo sapiens, HCC2218;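 further: cell viability assay read-out, with IC50 given as the concentration that inhibits growth of the cell line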
Description: SANGER: Inhibition of human HCC2218 cell growth in a cell viability assay.

[34] = system: LXF-289 cell line; assay type: functional, cell-based; conditions: Homo sapiens
Description: SANGER: Inhibition of human LXF-289 cell growth in a cell viability assay.

[35] = system: NCI-H1304; assay type: functional, cell-based, Homo sapiens; conditions: Homo sapiens, NCI-H1304;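 further: growth inhibition of the cancer cell line, measured in a cell viability assay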
Description: SANGER: Inhibition of human NCI-H1304 cell growth in a cell viability assay.

[36] = system: COR-L88; assay type: functional, cell-based, Homo sapiens; conditions: Homo sapiens, COR-L88;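 further: growth inhibition of COR-L88 cells, read out with a cell viability assay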
Description: SANGER: Inhibition of human COR-L88 cell growth in a cell viability assay.

[37] = system: LB2241-RCC; assay type: functional, cell-based, Homo sapiens; conditions: Homo sapiens, LB2241-RCC;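 further: cell viability assay measuring how strongly the cultured human renal carcinoma line is prevented from growing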
Description: SANGER: Inhibition of human LB2241-RCC cell growth in a cell viability assay.

[38] = system: SBC-1; assay type: functional, cell-based, Homo sapiens; conditions: Homo sapiens, SBC-1;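 further: cell viability assay measuring growth inhibition of the SBC-1 cell line, IC50 being the concentration that halves growth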
Description: SANGER: Inhibition of human SBC-1 cell growth in a cell viability assay.

[39] = system: NCI-N87; assay type: functional, cell-based; conditions: Homo sapiens;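 further: growth inhibition of human NCI-N87 cells, read out with a cell viability assay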
Description: SANGER: Inhibition of human NCI-N87 cell growth in a cell viability assay.

[40] = system: HCE-T; assay type: functional, cell-based, Homo sapiens; conditions: Homo sapiens, HCE-T;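 further: cell viability assay read-out, reporting inhibition of HCE-T cell growth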
Description: SANGER: Inhibition of human HCE-T cell growth in a cell viability assay.

[41] = system: KP-N-YS; assay type: functional, cell-based, Homo sapiens; conditions: Homo sapiens, KP-N-YS;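 further: cell viability assay measuring inhibition of cell line growth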
Description: SANGER: Inhibition of human KP-N-YS cell growth in a cell viability assay.

[42] = system: ALL-PO; assay type: functional, cell-based, Homo sapiens; conditions: Homo sapiens, ALL-PO;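 further: growth inhibition of ALL-PO cells, read out by a cell viability assay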
Description: SANGER: Inhibition of human ALL-PO cell growth in a cell viability assay.

[43] = system: CW-2; assay type: functional, cell-based, Homo sapiens; conditions: Homo sapiens, CW-2;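 further: growth inhibition of CW-2 cells, read out by a cell viability assay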
Description: SANGER: Inhibition of human CW-2 cell growth in a cell viability assay.

[44] = system: SNU-5; assay type: functional, cell-based, Homo sapiens; conditions: Homo sapiens, SNU-5;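 further: cell viability readout used to measure growth inhibition in human NCI-SNU-5 cells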
Description: SANGER: Inhibition of human NCI-SNU-5 cell growth in a cell viability assay.

[45] = system: MSTO-211H; assay type: functional, cell-based, Homo sapiens; conditions: Homo sapiens, MSTO-211H
Description: SANGER: Inhibition of human MSTO-211H cell growth in a cell viability assay.

[46] = system: OMC-1; assay type: functional, cell-based, Homo sapiens; conditions: Homo sapiens, OMC-1;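 further: growth inhibition of the OMC-1 cell line, measured by a cell viability assay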
Description: SANGER: Inhibition of human OMC-1 cell growth in a cell viability assay.

[47] = system: HD-MY-Z; assay type: functional, cell-based, Homo sapiens; conditions: Homo sapiens, HD-MY-Z;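 further: growth inhibition of HD-MY-Z cells, read out with a cell viability assay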
Description: SANGER: Inhibition of human HD-MY-Z cell growth in a cell viability assay.

[48] = system: MMAC-SF; assay type: functional, cell-based; conditions: Homo sapiens;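 further: growth inhibition of human MMAC-SF cells, read out with a cell viability assay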
Description: SANGER: Inhibition of human MMAC-SF cell growth in a cell viability assay.

[49] = system: DB; assay type: functional, cell-based, Homo sapiens; conditions: Homo sapiens, DB
Description: SANGER: Inhibition of human DB cell growth in a cell viability assay.

[50] = system: SJSA-1; assay type: functional, cell-based, Homo sapiens; conditions: Homo sapiens, SJSA-1;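 further: growth inhibition of human SJSA-1 cells, read out through a cell viability measurement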
Description: SANGER: Inhibition of human SJSA-1 cell growth in a cell viability assay.

With CCCCCCCCCCCC1=C(O)C(=O)C=C(O)C1=O [EMBELIN] as the molecule, how does the IC50 [1] read?
Its IC50 is > 32 µM.

What about the IC50 [2] of the same molecule?
The IC50 was > 32 µM.

And the IC50 [3]?
Its IC50 is 25.1 µM.

And the IC50 [4]?
The IC50 was 22.4 µM.

What about the IC50 [5] of the same molecule?
The IC50 was > 32 µM.

What about the IC50 [6] of the same molecule?
The IC50 was 31.7 µM.

What about the IC50 [7] of the same molecule?
The IC50 was 9.34 µM.

And the IC50 [8]?
The IC50 was 5.8 µM.

What about the IC50 [9] of the same molecule?
Its IC50 is 6.6 µM.

And the IC50 [10]?
The IC50 was 3.88 µM.

What about the IC50 [11] of the same molecule?
Its IC50 is > 32 µM.

What about the IC50 [12] of the same molecule?
The IC50 was > 32 µM.

And the IC50 [13]?
The IC50 was 8.74 µM.

What about the IC50 [14] of the same molecule?
The IC50 was > 32 µM.

What about the IC50 [15] of the same molecule?
Its IC50 is > 32 µM.

What about the IC50 [16] of the same molecule?
Its IC50 is 11.7 µM.

And the IC50 [17]?
The IC50 was 9.67 µM.

And the IC50 [18]?
The IC50 was 16.8 µM.

And the IC50 [19]?
The IC50 was > 32 µM.

What about the IC50 [20] of the same molecule?
Its IC50 is > 32 µM.

And the IC50 [21]?
Its IC50 is 26.5 µM.

And the IC50 [22]?
Its IC50 is > 32 µM.

And the IC50 [23]?
Its IC50 is > 32 µM.

What about the IC50 [24] of the same molecule?
Its IC50 is 23.6 µM.

And the IC50 [25]?
The IC50 was 7.9 µM.

And the IC50 [26]?
Its IC50 is > 32 µM.

What about the IC50 [27] of the same molecule?
Its IC50 is 14.3 µM.

What about the IC50 [28] of the same molecule?
The IC50 was 15.8 µM.

What about the IC50 [29] of the same molecule?
The IC50 was 16.2 µM.

What about the IC50 [30] of the same molecule?
The IC50 was > 32 µM.

What about the IC50 [31] of the same molecule?
Its IC50 is > 32 µM.

What about the IC50 [32] of the same molecule?
The IC50 was > 32 µM.

What about the IC50 [33] of the same molecule?
Its IC50 is 13 µM.

And the IC50 [34]?
Its IC50 is 9 µM.

And the IC50 [35]?
The IC50 was > 32 µM.

What about the IC50 [36] of the same molecule?
The IC50 was > 32 µM.

And the IC50 [37]?
The IC50 was > 32 µM.

And the IC50 [38]?
Its IC50 is 28.5 µM.

What about the IC50 [39] of the same molecule?
The IC50 was > 32 µM.

And the IC50 [40]?
Its IC50 is 13.1 µM.

And the IC50 [41]?
Its IC50 is > 32 µM.

What about the IC50 [42] of the same molecule?
Its IC50 is 3.65 µM.

What about the IC50 [43] of the same molecule?
Its IC50 is > 32 µM.

What about the IC50 [44] of the same molecule?
Its IC50 is > 32 µM.

And the IC50 [45]?
The IC50 was > 32 µM.

And the IC50 [46]?
Its IC50 is 12.1 µM.

And the IC50 [47]?
Its IC50 is 26.9 µM.

And the IC50 [48]?
Its IC50 is 26.8 µM.

And the IC50 [49]?
Its IC50 is > 32 µM.

And the IC50 [50]?
Its IC50 is 4.27 µM.

With CC1(C)CCC(c2ccc(Cl)cc2)=C(CN2CCN(c3ccc(C(=O)NS(=O)(=O)c4ccc(N[C@H](CCN5CCOCC5)CSc5ccccc5)c(S(=O)(=O)C(F)(F)F)c4)cc3)CC2)C1 [NAVITOCLAX] as the molecule, how does the IC50 [1] read?
The IC50 was > 2 µM.

What about the IC50 [2] of the same molecule?
Its IC50 is 1.97 µM.

And the IC50 [3]?
Its IC50 is > 2 µM.

And the IC50 [4]?
Its IC50 is > 2 µM.

And the IC50 [5]?
The IC50 was > 2 µM.

What about the IC50 [6] of the same molecule?
Its IC50 is > 2 µM.

What about the IC50 [7] of the same molecule?
Its IC50 is > 2 µM.

What about the IC50 [8] of the same molecule?
Its IC50 is > 2 µM.

And the IC50 [9]?
Its IC50 is 1.28 µM.

And the IC50 [10]?
Its IC50 is 0.107 µM.

And the IC50 [11]?
The IC50 was 0.087 µM.

What about the IC50 [12] of the same molecule?
The IC50 was > 2 µM.

What about the IC50 [13] of the same molecule?
The IC50 was > 2 µM.

And the IC50 [14]?
Its IC50 is > 2 µM.

What about the IC50 [15] of the same molecule?
Its IC50 is > 2 µM.

What about the IC50 [16] of the same molecule?
The IC50 was > 2 µM.

What about the IC50 [17] of the same molecule?
The IC50 was 0.583 µM.

What about the IC50 [18] of the same molecule?
The IC50 was > 2 µM.

What about the IC50 [19] of the same molecule?
Its IC50 is > 2 µM.

What about the IC50 [20] of the same molecule?
Its IC50 is > 2 µM.

And the IC50 [21]?
The IC50 was > 2 µM.

And the IC50 [22]?
Its IC50 is > 2 µM.

What about the IC50 [23] of the same molecule?
The IC50 was > 2 µM.

What about the IC50 [24] of the same molecule?
The IC50 was > 2 µM.

And the IC50 [25]?
The IC50 was > 2 µM.

What about the IC50 [26] of the same molecule?
The IC50 was 1.02 µM.

And the IC50 [27]?
The IC50 was > 2 µM.

And the IC50 [28]?
The IC50 was > 2 µM.

What about the IC50 [29] of the same molecule?
Its IC50 is > 2 µM.

What about the IC50 [30] of the same molecule?
The IC50 was 1.96 µM.

And the IC50 [31]?
Its IC50 is 1.37 µM.

And the IC50 [32]?
The IC50 was > 2 µM.

What about the IC50 [33] of the same molecule?
Its IC50 is > 2 µM.

And the IC50 [34]?
Its IC50 is > 2 µM.

And the IC50 [35]?
The IC50 was 0.462 µM.

And the IC50 [36]?
Its IC50 is 0.365 µM.

What about the IC50 [37] of the same molecule?
The IC50 was > 2 µM.

And the IC50 [38]?
The IC50 was 1.19 µM.

And the IC50 [39]?
The IC50 was > 2 µM.

And the IC50 [40]?
Its IC50 is > 2 µM.

And the IC50 [41]?
Its IC50 is 1.16 µM.

What about the IC50 [42] of the same molecule?
The IC50 was 0.22 µM.

And the IC50 [43]?
The IC50 was > 2 µM.

What about the IC50 [44] of the same molecule?
The IC50 was > 2 µM.

And the IC50 [45]?
The IC50 was > 2 µM.

What about the IC50 [46] of the same molecule?
Its IC50 is 1.86 µM.

And the IC50 [47]?
Its IC50 is > 2 µM.

And the IC50 [48]?
Its IC50 is > 2 µM.

And the IC50 [49]?
Its IC50 is 0.571 µM.

And the IC50 [50]?
The IC50 was > 2 µM.
